Experimental data from patent publication US5254549A, “New BHT ether compounds and their use as hypolipidemic and antiatherosclerotic drugs” (Merz & Co. GmbH & Co., priority 1991, dated 1993).
Like-named read-outs stand apart in the source and are kept apart here.

Tests used:
[1] = test system: Smooth muscle cells from the aorta of balloon-catheterized rats; assay: Antiproliferative effect on smooth muscle cells in vitro; format: cell-based; conditions: Rattus norvegicus, 72 h; 5×10^-5 M, 3 days, versus vehicle-treated control; read-out: Mean change (Δ mean reduction) of the number of smooth vascular muscle cells
Procedure: Smooth muscle cells, obtained after isolation from the aorta of balloon-catheterized rats, were cultivated in DMEM under addition of 10% of fetal calf serum and subject to passages.
For the assay 10,000 cells of one passage were inoculated per dish and incubated for 3 days with vehicle (namely DMSO, 0.5% final concentration) or test compound (5×10^-5 M) 4 h after innoculation. After 3 days a cell count was made. Six preparations-Were tested per test compound.
Table 5: Mean change (Δ mean reduction) in percent of the number of smooth vascular muscle cells after incubation with test substance for 3 days as compared to vehicle-treated control preparation.

triglycerides = assay: Lipid-lowering properties in fasting normolipidemic rats (serum triglycerides, GPO-PAP method); format: in vivo; conditions: rat, single oral dose 0.2 mmol/kg, read-out: Mean change (Δ mean reduction) of triglyceride concentrations versus vehicle-treated control
Procedure: The lipid-lowering properties of the compounds according to the invention were investigated in a rat model. In this model a single dose (0.2 mmol/kg) of the test substance was administered to fasting normolipidemic rats by the oral route. 240 and 360 minutes after application, blood samples were taken, the concentrations of triglycerides being assessed by a standard method (namely GPO-PAP method, E. Merck-system, Darrdstadt, Germany) (n=5 rats per measurement time).
In Table 2 the mean changes are given in percent as compared to a solvent (cremophor, 30% in aqua dest) control.
Table 2: Mean changes (Δ mean reduction) in percent of triglyceride concentrations 240 and 360 minutes after a single application versus vehicle-treated control.

[2] = Trilinolenine assay of antioxidant properties (TBA-reactive material); format: biochemical; conditions: 5×10^-5 M, 3 h at 37° C., versus vehicle-treated control; 50 µM
Procedure: (§1) The antioxidant properties of the compounds according to the invention were studied in in-vitro tests. In these tests the substance was incubated with the substrate to be oxidized (synthetic triglyceride with unsaturated fatty acids, i.e., trilinolenine or human LDL). After the incubation period, the degree of oxidation was determined using the so called thiobarbituric acid (TBA) assay. TBA reacts with malondialdehyde (MDA), which is one of the essential oxidation products. The reaction product was assayed photometrically.
400 μl of trilinolenine was incubated for 3 h at 37° C. with 2 ml HAM F 10 medium with vehicle (namely, ethanol, 0.5% final concentration) or test substance (concentration: 5×10^-5 M) (oxidation is effected without special catalysts).
The total TBA-reactive material was determined in 1 ml of the incubate by adding 1.5 ml of 0.67% TBA solution to 0.05 N NAOH and 1.5 ml to a 20% trichloroacetic acid solution. The mixture was reacted for 60 min. on a boiling water bath. After cooling, absorption was determined at 532 nm.
(§2) Three preparations were tested per test compound.
(§3) Tables 3a (trilinolenine assay) and 3b (LDL assay) represent the mean changes in percent as compared to solvent control.
(§4) Table 3: mean change (Δ mean reduction) in percent of the concentration of TBA-reactive material after 3-h (a: trilinolenine assay) and 24-h (b: LDL assay) incubation versus vehicle-treated control preparation.

human LDL = assay: LDL assay of antioxidant properties (TBA-reactive material); format: biochemical; conditions: 5×10^-5 M, 24 h, 10 μM Cu^2+, versus vehicle-treated control; 50 µM
Procedure: as §1
LDL (d=1.019-1.063) was obtained from human plasma by ultracentifugation under addition of EDTA.
100 μg of LDL was incubated with 0. 5 ml of HAM F 10 medium for 24 h at […] with vehicle (namely ethanol, 0. 5% final concentration) or test substance (concentration: 5×10^-5 M) in the presence of 10 μM of Cu^2+.
The total TBA-reactive material was determined in accordance with the trilinolenine assay.
as §2, §3, §4

[3] = test system: Human endothelial cells of the umbilical vein; assay: Endothelial protection against cytotoxic effects of oxidized LDL; format: cell-based; conditions: 2×10^-5 M, 24 h at 37° C., LDL 200 μg/ml; for Mean change (Δ mean reduction) of the concentration of TBA-reactive material after incubation of endothelial cells with LDL: versus control preparation 1 (vehicle + LDL), 20 µM; for viability at 20 µM: Homo sapiens, Endothelial cell, control preparation 2 without LDL = 100%, read-out: Mean number of endothelial cells after incubation with LDL as compared to control preparation 2
Procedure: Human endothelial cells of the umbilical vein were isolated after collagenase vascular treatment and cultured.
For the assay the cells were dispersed in a density of 50,000 per dish and cultivated for 4 days with Ham's F 12/DMEM medium (ratio: 4:1) under addition of 15% fetal calf serum, 5% horse serum and 10 ng/ml ECGF heparin.
After 4 days the cells were washed with serum-free medium and used in the cytotox assay.
For this assay the cells were incubated f or 24 h at 37° C. in 1 ml of Ham's F 10 medium (+ECGF heparin) with LDL (200 μg/ml). During this time period either the vehicle, namely, ethanol, 0.5% final concentration (control preparation 1) or the test substance (2×10^-5 M) was present. In parallel, one preparation was incubated without LDL and without any other substance and with vehicle (0.5% ethanol) to assess the maximum proliferation rate (control preparation 2).
After 24 h the resultant TBA-reactive material was determined in the medium or the number of cells counted.
as §2
Table 4a represents the mean changes in percent versus appropriate control preparation 1.
Table 4a: Mean change (Δ mean reduction) in percent of the concentration of TBA-reactive material after incubation of endothelial cells for 24 h with LDL versus appropriate control preparation 1.
Table 4b: Mean number of cells in percent after 24-h incubation with LDL as compared to appropriate control preparation 2.

[4] = Kinetics of nicotinic acid released from the compounds in fasting normolipidemic rats (GC/MS in serum); format: in vivo, rat; conditions: general statement
Procedure: The kinetics of nicotinic acid released from the compounds under investigation was studied in the rat. A single dose (0.2 mmol/kg) of the test substance was administered to fasting normolipidemic rats by gavage. 240 and 360 minutes thereafter, blood samples were taken and the concentration of nicotinic acid in serum was determined using a GC/MS method (n=5 rats per time). Table 1: Concentration of nicotinic acid (mg/1) in pooled serum samples after a single application of drug.

SMILES	inhibition at 50 µM [1]	inhibition in vivo at 200 µmol/kg (triglycerides; 4 h, Time 240')	inhibition in vivo at 200 µmol/kg (triglycerides; 6 h, Time 360')	Mean change (Δ mean reduction) of the concentration of TBA-reactive material, trilinolenine assay [2]	Mean change (Δ mean reduction) of the concentration of TBA-reactive material, LDL assay (human LDL)	Mean change (Δ mean reduction) of the concentration of TBA-reactive material after incubation of endothelial cells with LDL [3]	viability at 20 µM [3]	levels of nicotinic acid (in words) [4]
CC(C)(C)c1cc(CCCOCc2cccnc2)cc(C(C)(C)C)c1O [3/124, 2,6-Di-tert-butyl-4-(5-(3-pyridyl)-4-oxapentyl]phenol]	71%	73%	76%	76%	90%	57%	118%	–
CC(C)(C)c1cc(COCc2cccnc2)cc(C(C)(C)C)c1O [3/156]	–	–	–	–	–	–	–	excessively high levels of nicotinic acid
CC(C)(C)c1cc(COCCCCCCc2cccnc2)cc(C(C)(C)C)c1O [3/161, 2,6-Di-tert-butyl-4-[8-(3-pyridyl)-2-oxaoctyl]phenol]	98%	60%	67%	58%	79%	64%	107%	–
CC(C)(C)c1cc(COCCCCC#Cc2cccnc2)cc(C(C)(C)C)c1O [3/179, 2,6-Di-tert-butyl-4-[8-(3-pyridyl)-2-oxaoct-7-ynyl]phenol]	55%	57%	70%	79%	73%	43%	76%	–
CC(C)(C)c1cc(COCCCC/C=C\c2cccnc2)cc(C(C)(C)C)c1O [3/181, (Z)-2,6-Di-tert-butyl-4-(8-(3-pyridyl)-2-oxaoct-7-enyl]-phenol]	81%	57%	57%	76%	76%	65%	122%	–
CC(C)(C)c1cc(COCCCCc2cccnc2)cc(C(C)(C)C)c1O [3/187, 2,6-Di-tert-butyl-4-[6-(3-pyridyl)-2-oxahexyl]phenol]	93%	65%	55%	71%	82%	53%	80%	–
CC(C)(C)c1cc(COCCCCCCCc2cccnc2)cc(C(C)(C)C)c1O [3/188, 2,6-Di-tert-butyl-4-[9-(3-pyridyl)-2-oxanonyl]phenol]	63%	53%	40%	66%	71%	54%	79%	–
CC(C)(C)c1cc(CCCOCCCc2cccnc2)cc(C(C)(C)C)c1O [3/190, 2,6-Di-tert-butyl-4-[7-(3-pyridyl)-4-oxaheptyl]phenol]	91%	56%	28%	72%	89%	36%	65%	–
CC(C)(C)c1cc(CCCOCCCCCc2cccnc2)cc(C(C)(C)C)c1O [3/191, 2,6-Di-tert-butyl-4-[9-(3-pyridyl)-4-oxanonyl)phenol]	79%	37%	32%	76%	86%	33%	63%	–
CC(C)(C)c1cc(COCCCCCc2cccnc2)cc(C(C)(C)C)c1O [3/192, 2,6-Di-tert-butyl-4-[7-(3-pyridyl)-2-oxaheptyl]phenol]	95%	44%	53%	74%	86%	47%	79%	–
